From patent US20050145258A1, “Composition, Method and Device for Blood Supply Fluctuation Therapy” (priority 2004, published 2005)

Legend:
[1] = system: liver cancer; format: in vivo, human
Protocol: The inlet tube member 2 was connected to gas resource of gaseous CO2. 500 ml of the gaseous CO2 was introduced into storing bag for cleaning the air within the storing bag and delivery system. T Stopcock 1 in inlet tube member 2 was turned off to stop the gas into storing bag temporally. The gaseous CO2 in storing bag 3 was aspirated into syringe 6, then impelled by the syringe 6. Due to the function of check valve, during the aspirating of syringe, the first check valve 5 was open; meanwhile the second and third check valves were closed automatically. The gas in the storing bag was aspirated into syringe 6. During the impelling of syringe, the first check valve was closed and the second and third check valves were open automatically. The gaseous CO2 in the syringe is impelled out of the delivery device through the outlet of the third three-way stopcock. Repeating syringe aspirating and impelling until all gas in the storing bag was emptied, and the air within storing bag and delivery device was cleaned. After that, the stopcock on the inlet tubular member was turned on again to introduce the gaseous CO2 from the gas resource into storing bag 3 to fill the storing bag (2000 ml), then the stopcock 1 was turned off to stop gaseous CO2 introduction. The gaseous CO2 and delivery system was ready for use. […] The delivery catheter 13 was connected to the outlet of the third three-way stopcock of the delivery system, and the air within the catheter 13 was removed. Using the gaseous CO2 as contrast medium, 50 ml gaseous CO2 at rate of 10 ml/second was injected by syringe 6 into the hepatic artery to perform a diagnostic DSA. The diagnostic DSA was used to identify the location, size of tumor, arteries supplying blood to liver cancer, blood flow within tumor tissue and time gaseous CO2 staying in tumor vessels. All those information was necessary to doctor to select an optimal protocol of Blood Supply Fluctuation Therapy (BSFT). Then, the angiographic catheter was advanced into the artery supplying blood flow to the liver cancer. […] Blood Supply Fluctuation Therapy (BSFT) with Gaseous CO2: gaseous CO2 was injected slowly by the delivery syringe 6 through the catheter 13 into the tumor vasculature. […] The gas displaces the blood flow within the tumor vessels partially or entirely depending on the injection rate and lasting time. With increasing of the gaseous mixture, the blood supply to the liver cancer was decreased, even stopped. Because tumor vasculature was immature, “vapor lock” in tumor vasculature was produced by the gaseous CO2. With decreasing and stopping of the blood flow of tumor vasculature, the gaseous CO2 injected through delivery catheter might overflow into the arteries supplying normal liver tissue that could be detected and monitored by X-ray fluoroscopy, DSA, CT or ultrasound imaging. Because the gaseous CO2 was absorbable in blood and could be flushed away in normal vasculature within one minute, therefore the gaseous CO2 overflowing into normal vasculature caused no damage in normal liver tissue. At this time, gaseous CO2 delivery was stopped. Due to vapor lock, there was no blood flow in tumor vasculature and no nutrition and oxygen was delivery to tumor cells, which made it under starvation and hypoxia. Meanwhile also due to the vapor lock, area of the CO2 bubbles contacting with blood was getting much smaller, which limits CO2 absorbability and prolongs CO2 gas staying within tumor vasculature. […] Under X-ray fluoroscopy, the tumor looked like a balloon filled with gas (FIG. 9). Thirty minutes after injection of CO2 about half of the gas still remained in the tumor (FIG. 10).

[2] = system: uterine fibroids; test: Blood supply fluctuation therapy with gaseous mixture of CO2 and nitric oxide in patients with uterine fibroids; format: in vivo, human
Text: Preparation of gaseous mixture of CO2 and Nitric Oxide: the preparation procedure was same as that of gaseous CO2 in example 1, except the gaseous material was not CO2, but the gaseous mixture of CO2 and Nitric Oxide (NO). The concentration of NO was present in an amount effective to prevent vasospasm and ischemia, 40 ppm here.
Selective catheterization and diagnostic Digital Subtraction Angiogrpahy (DSA) with Gaseous Mixture of CO2 and Nitric Oxide (NO): under monitoring of X-ray fluoroscope and using interventional technique of selective catheterization, a delivery catheter was inserted into the internal iliac artery in the patients with uterine fibroids. […]
Blood Supply Fluctuation Therapy (BSFT) with Gaseous Mixture of CO2 and Nitric Oxide (NO): gaseous mixture of CO2 and Nitric Oxide (NO) was injected slowly and intermittently by the delivery syringe through the delivery catheter into tumor vasculature at the rate of 1 ml/s and with 5 minutes interval each 20 ml injection. […] With the decreasing and stopping of the blood flow of tumor vasculature, the gaseous mixture injected through delivery catheter might overflows into the arteries supplying normal uterine wall that could be detected and monitored by X-ray fluoroscopy, DSA, CT or ultrasound imaging. […]

CO2 bubbles in immature tumor vasculature, DSA imaging ([1]; human, in vivo): filled and accumulated
CO2 bubbles in normal liver tissue, DSA imaging ([1]; human, in vivo): no bubbles accumulated
discomfort felt by patients receiving the injection ([1]; human, in vivo): minor discomfort on liver area
time CO2 accumulates and stays in abnormal vasculature ([1]; human, in vivo): for hours, even for days
time to be flushed away in normal vasculature ([1]; human, in vivo): one
gas seen in normal uterine tissue, CT scan ([2]; human, in vivo): No gas
Compound: O=C=O [CO2, carbon dioxide]
damage in normal liver tissue ([1]; human, in vivo): no damage
vapor lock in tumor vasculature ([1]; repeated 50 ml injections through catheter): produced
filling of liver tumor with CO2, X-ray ([1]; tumor 7 cm in diameter, total of 500 ml CO2, 3-5 ml/s, 3-5 minutes interval each 50 ml injection): fully filled
vapor lock in tumor vasculature, CT scan ([2]; 45 minutes after BSFT): produced
